Assay results taken from the METLIN SMRT retention time set (Domingo-Almenara et al. 2019).

Assay: gradient 5% acetonitrile 3 min, to 50% in 2 min, to 85% in 15 min, held 3 min, 100 µL/min
Conditions: column: Zorbax Extend-C18 2.1 x 50 mm; eluents: water / acetonitrile, 0.1% formic acid
In short: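 Pure standards were run in mixtures of ~100 molecules by HPLC coupled to a quadrupole time-of-flight mass spectrometer. The column was a Zorbax Extend-C18 (2.1 × 50 mm, 1.8 μm) at 100 μL/min, with water and acetonitrile each containing 0.1% formic acid, in positive and negative ionization mode. Dead and dwell volumes were 40 μL and 900 μL. Retention time was taken from computationally picked adduct peaks, each manually inspected, with data collected over 3 months.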

| Compound | RP-LC retention time |
| --- | --- |
| O=C(NC1CCCCC1)c1ccc(CN2CCN(Cc3ccc(F)cc3)C(=O)C2=O)cc1 | 783 s |
| COc1ccc(CCN2CCC(CNS(=O)(=O)c3ccc4c(c3)CCCC(=O)N4)CC2)cc1 | 628 s |
| Cc1ccc(CN2CCN(CC(=O)NCCCc3ccccc3)C(=O)C2=O)cc1 | 794 s |
| O=C(N1c2ccccc2CC1c1nnc(C2CCOCC2)o1)C1(c2ccccc2)CC1 (stereo not drawn) | 841 s |
| Cc1cc(=O)n(CC(=O)Nc2ccccc2)c(N2CCOCC2)n1 | 628 s |
| Cc1cccc(Nc2c(-c3ccc(Br)cc3)nc3cnccn23)c1C | 1140 s |
| O=C(O)c1nnn(-c2cccc(F)c2)c1-c1cccnc1 | 614 s |
| COC(=O)c1ccc(Cl)cc1NC(=O)COc1nc(C)nc2ccccc12 | 920 s |
| Clc1ccc(Cc2noc(Cc3nc(-c4ccccc4)cs3)n2)cc1 | 1170 s |
| CCn1cc(CCNC(=O)c2ccc(Br)cc2)c2cccnc21 | 766 s |
| CCOC(=O)C1CCN(C(=O)c2cn(-c3cc(N4CCSCC4)ncn3)cn2)CC1 | 791 s |
| O=C(NC1CCCC1)c1ccc2ccnc(N3CCN(c4ccccc4)CC3)c2c1 | 776 s |
| O=C(CCNc1c(-c2cccc(F)c2)nc2cnccn12)NCc1ccc(F)c(Cl)c1 | 806 s |
| CCCc1noc(-c2ccc(-n3cnc(C(=O)N4CCCC4)c3)nc2)n1 | 816 s |
| Cc1sc(-c2cc(C(F)(F)F)on2)cc1S(=O)(=O)Nc1cccc(Cl)c1C | 1240 s |
| Cn1nc2n(c1=O)CCN(S(=O)(=O)c1cccc3cccnc13)CC2 | 649 s |
| COCCc1noc([C@@H]2CN(Cc3ccc4[nH]ccc4c3)C[C@H]2CO)n1 | 592 s |
| COc1ccc(OC)c(S(=O)(=O)N2CCc3nc(-c4ccc(F)cc4)ncc3C2)c1 | 1050 s |
| COC(=O)CNC(=O)NCCn1c(C(F)(F)F)nc2ccccc21 | 653 s |
| CCOc1ccccc1CNC(=O)C1CCN(Cc2c(C)n(CC)c3ccccc23)CC1 | 780 s |
| CC1CCN(c2cc(-c3noc(C(=O)NCCN4CCOCC4)n3)ccn2)CC1 | 572 s |
| CC1CCCCN1S(=O)(=O)c1ccc(Cl)c(C(F)(F)F)c1 (stereo not drawn) | 1120 s |

| Compound | RP-LC retention time |
| --- | --- |
| O=S(=O)(c1ccc(Br)cc1)N1CCSC1c1ccco1 (stereo not drawn) | 965 s |
| O=C(NCc1ccccc1F)c1ccc2c(c1)CNCCO2 | 605 s |
| Cc1ccccc1NC(=O)C1(C)Oc2cccnc2N(C)C1=O (stereo not drawn) | 778 s |
| CCN(CC)C(=O)c1ccc(-c2nc3cc(NS(=O)(=O)c4cccs4)ccc3n2C)cc1 | 679 s |
| CCCNC(=O)N(C1CCOCC1)C1CCN(S(=O)(=O)c2cc(F)ccc2C)CC1 | 897 s |
| c1ccc(CCNc2nnc(-c3nc(C4CC4)no3)c3ccccc23)nc1 | 629 s |
| O=c1[nH]cnc2scc(-c3ccc(Cl)cc3)c12 | 734 s |
| COc1ccc(CNC(=O)C2(C)Oc3cccnc3N(C(C)C)C2=O)cc1OC (stereo not drawn) | 836 s |
| Cc1cccc(NC(=O)N2CCCC2c2cc(C)on2)c1 (stereo not drawn) | 748 s |
| O=C(NCc1ccccc1F)C1CCN(C(=O)c2ncn3c2COC(c2ccc(Cl)cc2)C3)CC1 (stereo not drawn) | 819 s |
| CCOc1ccc(-c2cc3c(=O)n(Cc4nc(-c5ccc(Cl)cc5)no4)ncn3n2)cc1 | 1140 s |
| CCOc1ccc(OCC)c(N2C=C(C#N)S(=O)(=O)c3c(F)cccc32)c1 | 923 s |
| Cn1c(=O)n(C)c2cc(S(=O)(=O)c3ccc(F)cc3)c(NC(=O)Cc3cccs3)cc21 | 790 s |
| CCN1CCN(CCCNC(=O)CC2CCN(C(=O)c3[nH]c(C)c(C)c3C)CC2)CC1 | 578 s |
| O=C(NC1CC1)c1cc(=O)[nH]c2c(Cl)cccc12 | 626 s |
| CCN(CC)S(=O)(=O)c1cc(-c2nnc(C)o2)co1 | 737 s |
| COc1ccc(NC(=O)c2c(O)c3cccnc3n(-c3ccc(F)cc3)c2=O)cc1 | 1250 s |
| CC1CN(C2CCCCC2)c2nc3c(c(=O)n(CCN4CCCCC4)c(=O)n3C)n2C1 (stereo not drawn) | 722 s |
| Cn1cc(-c2cc3n(n2)CCCN3C(=O)CCC(=O)N2CCCCCC2)c2ccccc21 | 837 s |
| CCCc1nc(-c2ccccc2)oc1CC(=O)Nc1cccc(Cl)c1C | 1080 s |
| CC1(C)N=C(N)N=C(N)N1c1ccc(OCCCOc2ccccc2)c(Cl)c1 | 812 s |
| COc1ccc(-c2nc(C)cc(C)c2CNS(=O)(=O)c2ccc(F)cc2)cc1 | 654 s |

| Compound | RP-LC retention time |
| --- | --- |
| CCCc1noc(-c2ccc3nnc(CC(=O)Nc4ccc(F)c(C)c4)n3c2)n1 | 921 s |
| CCc1ccc(NC(=O)Cn2c(N)nc(CC)c(C)c2=O)cc1 | 639 s |
| CCOc1ccc(C(O)CN2CCN(c3ccccc3)CC2)cc1 (stereo not drawn) | 653 s |
| Cc1cc(N2CCN(C)CC2)n2nc(-c3ccc(Cl)cc3)nc2n1 | 658 s |
| Cc1cc(F)ccc1N1C(=O)CN(S(=O)(=O)c2ccccc2)CC1(C)C(=O)NC1CCCC1 (stereo not drawn) | 928 s |
| Cc1nnc(-c2cc(NC(=O)Cc3c(F)cccc3Cl)c(C)s2)o1 | 886 s |
| COc1ccc(NC(=O)c2c(S(=O)(=O)Nc3ccc(Cl)cc3)n[nH]c2C)cc1OC | 788 s |
| CCOC(=O)Cn1c(C2CC(=O)N(c3ccccc3)C2)nc2ccccc21 (stereo not drawn) | 770 s |
| COc1ccc(-n2nc(C)c3sc(N4CCCC(C(=O)NC5CCCC5)C4)nc32)cc1 (stereo not drawn) | 1040 s |
| Cc1ccc(C)c(N2CCN(C(=O)c3cn4ccc(C)cc4n3)CC2)c1 | 759 s |
| COc1ccccc1NC(=O)N1CCC(CNC(=O)CCSc2ccccc2)CC1 | 771 s |
| CCOC(=O)c1noc2ncnc(Nc3ccccc3)c12 | 1000 s |
| Cc1nn(-c2ccc(Cl)cc2)c(C)c1S(=O)(=O)N1CCC(C(=O)N2CCOCC2)CC1 | 810 s |
| Cc1ccn2cc(-c3ccc(NS(=O)(=O)c4cccc([N+](=O)[O-])c4)cc3)nc2n1 | 662 s |
| Cc1ccc(-c2cn3c4c(=O)n(C)c(=O)n(C)c4nc3n2Cc2ccc(F)cc2)cc1 | 983 s |
| CCOC(=O)c1cnc2nc(C)ccc2c1Nc1ccc(F)c(Cl)c1 | 764 s |
| COCCNC(=O)C1c2cc(OC)c(OC)cc2C(=O)N(C)C1c1ccc(OC)cc1 (stereo not drawn) | 661 s |
| Cc1cc(OCC(=O)NCc2ccc3c(c2)OCO3)nc(N2CCCCCC2)n1 | 594 s |
| CC(NC(=O)c1cn(-c2cc(-c3nc(C(C)(C)C)no3)ccn2)cn1)c1ccccc1 (stereo not drawn) | 1100 s |
| CCc1nc(-c2csc(S(=O)(=O)N3CCCC(C(=O)Nc4ccc(C)c(F)c4)C3)c2)no1 (stereo not drawn) | 1110 s |
| Cn1cc(-c2cc3n(n2)CCCN3C(=O)CCC(=O)NC2CCCCC2)c2ccccc21 | 837 s |
| CC(C)c1ccc(Nc2c(-c3ccc(Cl)cc3)nc3cnccn23)cc1 | 1190 s |

| Compound | RP-LC retention time |
| --- | --- |
| O/C(=C\Sc1nnc(COc2ccc(Cl)cc2Cl)o1)c1ccc(F)cc1 | 915 s |
| CCCNC(=O)C1CCN(c2ccc(SCC(=O)Nc3ccc(F)c(Cl)c3)nn2)CC1 | 692 s |
| O=C(C1CCOC1)N1CCCn2nc(-c3cccc(Cl)c3)cc2C1 (stereo not drawn) | 771 s |
| CCOC(=O)c1sc(NC(=O)CN2C(=O)c3ccccc3C2=O)c(SC#N)c1C | 912 s |
| CCCOC(=O)Cn1c(=O)oc2cc(S(=O)(=O)N3CCN(c4ccccn4)CC3)ccc21 | 703 s |
| O=C(OC1C[C@@H]2CC3C[C@@H](C1)N2CC3=O)c1c[nH]c2ccccc12 (stereo partly drawn) | 638 s |
| CC(C)N1C(=O)c2cccnc2Sc2cc(NC(=O)C3(c4ccccc4)CC3)ccc21 | 1020 s |
| Cc1nn2c(CNC(=O)c3n[nH]c4c3CCCC4)c(-c3ccccc3)nc2s1 | 784 s |
| COc1cccc(CC(=O)N2CCC(Nc3ncnc4c3CCC4)C2)c1 (stereo not drawn) | 604 s |
| Cc1ccc(CNC(=O)C2(C)CN(S(C)(=O)=O)CC(=O)N2c2ccc(Cl)cc2)cc1 (stereo not drawn) | 850 s |
| Cc1cc(N2CCCC2)n2nc(CN3CCN(CC(C)C)CC3)nc2n1 | 549 s |
| Cc1ccc(C2Cn3nnc(-c4nc(-c5ccccc5F)no4)c3CO2)c(C)c1 (stereo not drawn) | 1230 s |
| COc1ccc(S(=O)(=O)N2CCCC(C(=O)NC3CC3)C2)cc1Cl (stereo not drawn) | 780 s |
| O=C1CC(c2nc(-c3ccccn3)no2)CN1c1ccc2c(c1)OCO2 (stereo not drawn) | 707 s |
| CC(C)(C)C(=O)Nc1nnc(-c2cccs2)o1 | 652 s |
| CCOc1cccc(-c2noc(CCn3nc(-c4ccc(F)cc4)ccc3=O)n2)c1 | 1060 s |
| CCOCCCNC(=O)N1CCN(Cc2nc3cc(C(=O)NC(C)C)ccc3n2C)CC1 | 593 s |
| O=C(c1cccs1)N1CC(C(=O)N2CCC(O)CC2)C1 | 566 s |
| Cc1cccc(-c2noc(C3CCCN3C(=O)C3CC(=O)N(c4ccc(C)c(C)c4)C3)n2)c1 (stereo not drawn) | 1030 s |
| O=C(CSc1nc2ncccc2n2cccc12)N1CCN(c2ccccn2)CC1 | 592 s |
| COc1ccc(-c2ccc(=O)n(Cc3nc(-c4ccccc4Cl)no3)n2)cc1 | 962 s |
| CCn1cnc(S(=O)(=O)N2CCC(C(=O)N3CCN(c4ccc(OC)cc4)CC3)CC2)c1 | 668 s |
